Source: US5763596A, “C-4' modified adenosine kinase inhibitors” (Metabasis Therapeutics, Inc., priority 1996, dated 1998)
pIC50: −log10 of the molar value.

Tests used:
Female SA rats = assay: liver toxicity, serum SGOT, SGPT and total bilirubin; format: in vivo, rat; design: unit not given here; conditions: 2 x 37.5 μmol/kg i.v. infusion (total 75 μmol/kg), 12 h after second dose
Protocol: Female SA rats (150-200 g) were anesthetized with halothane and cannulated via the internal jugular vein. The animals were allowed to recover for 3 days. […] Twelve hours later, an additional 37.5 μmol kg was infused over 40 minutes (total dose=75 μmol/kg). Twelve hours after the second dose, the animals were anesthetized with halothane and exsanguinated through the descending aorta. Serum was prepared and liver enzymes (serum glutamic-oxaloacetic transaminase (SGOT), serum glutamic-pyruvic transaminase (SGPT)) and total bilirubin in the serum samples were determined by a commercial laboratory.

Rats = assay: anti-inflammatory activity, carrageenan paw; format: in vivo, rat; conditions: 10 mg/kg, swelling after 3 hours
Protocol: Carrageenan (Type λ) was suspended in sterile PBS at 1% (w/v), autoclaved for 30 minutes, and stored at room temperature. Rats were pretreated with vehicle or AK inhibitor (10 mg/kg) by oral gavage or i.p. administration and the volume of the left hind paw was measured using a water displacement plethysmometer (Stoelting Co., Wood Dale, Ill.). One hour after oral treatment or 30 minutes after i.p. treatment, the rats were briefly anaesthetized, and 0.1 ml of the carrageenan solution was injected subcutaneously into the planar surface of the left hind paw. The ensuing paw swelling was measured by plethysmometry after 3 hours. The paw volume in milliliters was subtracted from the pre-injection paw volume. Data are presented in Table 8 as the percent inhibition of paw swelling in AK inhibitor treated animals, compared to vehicle treated control animals.

male Lewis rats = assay: adjuvant arthritis; format: in vivo, rat
Protocol: Heat-killed Mycobacterium butyricum was ground to a find powder and suspended in heavy mineral oil at 10 mg/ml. The suspension was injected subcutaneously into the base of the tail of male Lewis rats at 0.1 ml per rat. This immunization procedure induces an agressive arthritis that is apparent at day 10-12 and rapidly worsens. The volumes of the hind paws were measured before immunization and on days 12, 15 and 20 after immunization. The baseline paw volume was subtracted from the arthritic volumes to yield paw swelling. AK inhibitors were given by daily oral gavage beginning on day 4 after immunization, using polyethylene glycol-400 as the vehicle. Control rats received vehicle only. Percent inhibition was calculated based on paw swelling in AK inhibitor treated group compared to vehicle treated group, and is reported in Table 11.

male SA rats [1] = assay: rat skin lesion model, inhibition of neutrophil accumulation induced by carrageenan; format: in vivo
Protocol: The dorsal skin of male SA rats was shaved and carrageenan (Type λ) or phosphate-buffered saline was injected intradermally. Three hours later, the injection sites were biopsied and weighed. Neutrophil content of the skin biopsies was measured as the quantity of myeloperoxidase (MPO) present in a tissue homogenate. The excised, weighed skin pieces were placed in 4 ml 0.5% mixed alkyl trimethylammonium bromide and homogenized at the highest speed for 15 seconds in a Polytron homogenizer (Brinkmann Instruments, Westbury, N.Y.). Lipids were extracted by adding 1 ml of dichloromethane to the homogenate, vortexing vigorously, and centrifuging at 1000 g, 5° C. for 15 min. Fifty μl of each supernatant was added in duplicate to a 96 well assay plate, along with dilutions of human myeloperoxidase standard. Potassium phosphate buffer (pH 6.1) containing 0.36 mg/ml of o-dianisidine dihydrochloride and 0.001% hydrogen peroxide was added (200 μl/well), and the absorbance at 450 nm was read after 5 min incubation at room temperature. The myeloperoxidase content of each skin piece was calculated from a standard curve constructed using least-square regression, and expressed as units of MPO/g of tissue.
AK inhibitors were administered orally using polyethylene glycol-400 as vehicle or intraperitoneally using dimethylsulfoxide as vehicle, at indicated time before skin lesion injection. For each experiment, the average of all values from saline-induced lesions was calculated. This baseline value was then subtracted from values obtained from carrageenan-induced lesions. Percent inhibition for AK inhibitors were calculated from these baseline-corrected values.

adenosine kinase = adenosine kinase (AK) inhibition; format: biochemical, pig heart or recombinant human; conditions: 0.5 μM [U-14C] adenosine, pH 7.0, 20 minutes
Protocol: Adenosine kinase activity was measured essentially as described by Yamada et al. (Yamada, Y., Goto, H., Ogasawara, N. (1988) Biochim. Biophys. Acta 660, 36-43.) with a few minor modifications. […] Natl. Acad. Sci. […] The reactions were incubated for 20 minutes at […] The assay was quenched upon spotting 30 μL aliquots onto 2 cm^2 pieces of Whatman DE81 anion exchange paper. The papersquares were washed for 3 minutes in 6 L distilled/deionized water to remove the unreacted adenosine. The washed squares were rinsed in 95% ethanol and dried in an oven at 100° C. for 10 minutes. The amount of ^14 C-AMP was quantified by scintillation counting.

male SA rats [2] = assay: anticonvulsant activity, maximal electroshock (MES) model; format: in vivo; conditions: Rattus norvegicus, ip, 1 h before MES; >5 / <5: fewer / more than 50% of animals inhibited at 5 mg/kg in initial screen
Protocol: The anticonvulsant activity of the tested compounds was evaluated in male SA rats (100-150 g, Simonsen) using the maximal electroshock (MES) model described in Swinyard et al., Antiepileptic Drugs, 3d Ed. at 85-102 (Levy, et al., eds.), NY: Raven Press (1989). The rats were maintained on a 12/12 light/dark cycle in temperature controlled facilities with free access to food and water. For p.o. administration, the animals are fasted overnight, prior to the experiment. One hour prior to seizure testing, the animals were injected interperitoneally (ip) or orally (per os, po) with one of various doses of test compound dissolved in DMSO or PEG 400.
Maximal electroshock seizures (MES) were induced by administering a 150 mA, 60 Hz current for 0.2 seconds via corneal electrodes using a Wahlquist Model H stimulator. […] This endpoint was expressed as the percentage of animals in which the response was inhibited. Typically, compounds were screened initially at one hour following a dose of 5 mg/kg ip. […] The results for exemplary compounds of the invention are set forth in Table 8, expressed as ED50 values.

[3] = 10 mg/kg daily oral gavage from day 4
[4] = 20 mg/kg daily oral gavage from day 4

pIC50 (adenosine kinase): 7.55
Compound: O[C@@H]1[C@H](O)CO[C@H]1n1cc(-c2ccccc2)c2c(Nc3ccc(F)cc3)ncnc21 [compound 28]
average serum Total Bilirubin (Female SA rats): 0.07
average serum content of SGOT (Female SA rats): 61
average serum content of SGPT (Female SA rats): 23
Carrageenan Paw (% inh) i.p. (Rats; i.p., 30 min before carrageenan): 52%
Carrageenan Paw (% inh) p.o. (Rats; p.o., 1 h before carrageenan): 25%
% inh at day 12 (paw swelling) (male Lewis rats; [3]): 29 ± 7%
% inh at day 15 (paw swelling) (male Lewis rats; [3]): 22 ± 4%
% inh at day 12 (paw swelling) (male Lewis rats; [4]): 52 ± 23%
% inh at day 15 (paw swelling) (male Lewis rats; [4]): 52 ± 22%
% inh at day 20 (paw swelling) (male Lewis rats; [4]): 40 ± 8%
% inhibition of neutrophil accumulation (male SA rats [1]; i.p., pretreatment 30 min, 3 mg/kg): 18%
% inhibition of neutrophil accumulation (male SA rats [1]; i.p., pretreatment 30 min, 10 mg/kg): 62%
% inhibition of neutrophil accumulation (male SA rats [1]; i.p., pretreatment 30 min, 30 mg/kg): 79%
% inhibition of neutrophil accumulation (male SA rats [1]; i.p., pretreatment 60 min, 10 mg/kg): 49%
% inhibition of neutrophil accumulation (male SA rats [1]; i.p., pretreatment 120 min, 10 mg/kg): 60%
% inhibition of neutrophil accumulation (male SA rats [1]; i.p., pretreatment 240 min, 10 mg/kg): 28%
% inhibition of neutrophil accumulation (male SA rats [1]; p.o., pretreatment 60 min, 10 mg/kg): 28%
% inhibition of neutrophil accumulation (male SA rats [1]; p.o., pretreatment 60 min, 20 mg/kg): 40%
% inhibition of neutrophil accumulation (male SA rats [1]; p.o., pretreatment 120 min, 20 mg/kg): 84%
% inhibition of neutrophil accumulation (male SA rats [1]; p.o., pretreatment 240 min, 20 mg/kg): 77%
% inhibition of neutrophil accumulation (male SA rats [1]; p.o., pretreatment 420 min, 20 mg/kg): 20%
ED50 at 5 mg/kg (male SA rats [2]): < 5 mg/kg
